Like-named read-outs stand apart in the source and are kept apart here.
Legend:
rat primary hepatocytes [1] = system: rat primary hepatocytes
HepG2 cells [2] = details: for IC50: read-out: MMP assays IC50 (µM) HepG2
HepG2 cells [3] = details: cited from earlier work
rat primary hepatocytes [4] = experiment: MMP assay in rat primary hepatocytes; details: for IC50: read-out: MMP assays IC50 (µM) Rat Hepatocytes
[5] = read-out: MMP assays IC50 (µM), qHTS-HepG2
[6] = read-out: MMP assays IC50 (µM) qHTS-HepG2
[7] = HepG2 cells, single number from one experiment
[8] = rat hepatocytes, mean ± SD of three experiments

Row | Molecule | MMP assays efficacy (%) Rat Hepatocytes (rat primary hepatocytes [1]) | MMP assays efficacy (%) HepG2 (HepG2 cells [2]) | IC50 (HepG2 cells [2]) [µM] | MMP assays efficacy (%) qHTS-HepG2 (HepG2 cells [3]) | IC50 (HepG2 cells [3]; [5]) [µM] | IC50 (rat primary hepatocytes [4]) [µM] | IC50 (HepG2 cells [3]; [6]) [µM] | MMP assays IC50 (µM) Rat Hepatocytes (rat primary hepatocytes [4]) | MMP assays IC50 (µM) HepG2 (HepG2 cells [2]) | MMP assays IC50 (µM) qHTS-HepG2 (HepG2 cells [3]) | MMP assays efficacy (%) HepG2 (HepG2 cells [2]; [7]) [%] | IC50 (HepG2 cells [2]; [7]) [µM] | MMP assays IC50 (µM) Rat Hepatocytes (rat primary hepatocytes [4]; [8]) | IC50 (rat primary hepatocytes [4]; [8]) [µM]
1 | COc1cc(Cl)ccc1Oc1ccc(Cl)cc1Cl [Methyl triclosan] | -95±27% | -95% | 39.8 | -79±13% | 25.5 ± 1.67 | 45.9 ± 14.7 |  |  |  |  |  |  |  | 
2 | CC(c1ccc(O)cc1)c1ccc(O)cc1 [Bisphenol E] | -56±19% | -147% | 25.1 | -127±8% |  | 36.5 ± 19.2 | 27.6 ± 1.8 |  |  |  |  |  |  | 
3 | Cc1c([N+](=O)[O-])c(C)c([N+](=O)[O-])c(C(C)(C)C)c1[N+](=O)[O-] | inactive | -24% | 7.94 | -82±11% |  |  | 20.1 ± 6.09 | inactive |  |  |  |  |  | 
4 | CN(N=O)c1ccc([N+](=O)[O-])cc1 [N-Nitroso-N-methyl-4-nitroaniline] | -69+6% | inactive |  | inactive |  | 20 ± 16.6 |  |  | inactive | inactive |  |  |  | 
5 | CCN1\C(=C/C=C/C=C/c2sc3ccccc3[n+]2CC)Sc2ccccc21.[Cl-] [Dithiazanine chloride] | -77±9% | -79% | 0.15 | -56±6% |  | 2.45 | 0.27 |  |  |  |  |  |  | 
6 | Cl.Nc1c2ccccc2nc2ccccc12.O | -56±22% | -115% | 21.8 | -82±4% |  | 8.51 ± 5.35 | 13.8 ± 1.75 |  |  |  |  |  |  | 
7 | C=C1CC[C@H](O)C/C1=C/C=C1\CCC[C@]2(C)[C@@H]([C@H](C)CCCC(C)C)CC[C@@H]12 [Vitamin D3] | inactive | inactive |  | inactive |  |  |  | inactive | inactive | inactive |  |  |  | 
8 | Cc1cnc(NC(=O)C2=C(O)c3ccccc3S(=O)(=O)N2C)s1 [Meloxicam] | inactive | inactive |  |  | 14.5 |  |  | inactive | inactive |  |  |  |  | 
9 | CNC(=O)c1cc(Oc2ccc(NC(=O)Nc3ccc(Cl)c(C(F)(F)F)c3)cc2)ccn1 | -72±24% | -92% | 1.23 |  | 0.96 ± 0.09 | 2.25 ± 0.63 |  |  |  |  |  |  |  | 
10 | CC(=O)C1(C)CC2=C(CCCC2(C)C)CC1C (stereo not drawn) | inactive |  |  | -50±18% |  |  | 27.3 ± 20.4 |  |  |  | -43 | 35.5 | inactive | 
11 | CC1(COc2ccc(CC3SC(=O)NC3=O)cc2)CCCCC1 (stereo not drawn) [Ciglitizone] | -84±44% | -97% | 14.1 | -106±9% |  | 9.92 ± 4.25 | 8.22 ± 1.6 |  |  |  |  |  |  | 
12 | Cl.Cl.NNCc1ccccc1 [Benzylhydrazine dihydrochloride] | inactive | -88% | 19.9 | -106±12% |  |  | 27.8 ± 3.21 | inactive |  |  |  |  |  | 
13 | Nc1nc(N)c(N)c(N)n1.O=S(=O)(O)O [tetra-Aminopyrimidine sulfate] | -55±32% | -87% | 25.1 | -117±30% | 18.7 ± 11.4 | 42.1 ± 30.6 |  |  |  |  |  |  |  | 
14 | Tributyltin chloride | -136±58% | -96% | 0.89 | -97±11% | 0.11 ± 0.02 | 8.95 ± 1.03 |  |  |  |  |  |  |  | 
15 | O=[N+]([O-])c1ccc(F)c([N+](=O)[O-])c1 [1-Fluoro-2,4-dinitrobenzene] | -68±38% | -103% | 5.48 | -104±8% |  | 8.3 ± 5.67 | 3.71 ± 0.6 |  |  |  |  |  |  | 
16 | Oc1cc2ccccc2c2ccccc12 [Compound 9-Phenanthrol] | -94±31% | -101% | 3.55 | -101±8% |  | 47.3 ± 10.7 | 1.22 ± 0.56 |  |  |  |  |  |  | 
17 | O=C1NC(=O)c2cccc3cccc1c23 [1H-Benzo[de]isoquinoline-1,3(2H)-dione] | -43±22% | -77% | 14.1 | -77±24% |  | 5.56 ± 8.92 | 8.31 ± 3.47 |  |  |  |  |  |  | 
18 | O=[Se](O)O [Selenious acid] | -75±56% | inactive |  | -68±13% | 16 ± 22.8 | 44.1 ± 26.9 |  |  | inactive |  |  |  |  | 
19 | CC(=O)OCC(=O)[C@@]12OC(C)(C)O[C@@H]1C[C@H]1[C@@H]3C[C@H](F)C4=CC(=O)C=C[C@]4(C)[C@@]3(F)[C@@H](O)C[C@@]12C [Fluocinonide] | inactive | inactive |  | inactive |  |  |  | inactive | inactive | inactive |  |  |  | 
20 | O=C(Nc1ccc(Br)cc1)c1cc(Br)cc(Br)c1O [Tribromosalan] | -96±35% |  |  |  | 1.12 |  |  |  |  |  | -111 | 0.97 |  | 0.55 ± 0.36
21 | Cc1oc(C)c(C(=O)Nc2ccccc2)c1C [Methfuroxam] | inactive | -48% | 17.8 | -69±12% | 25.8 ± 1.71 |  |  | inactive |  |  |  |  |  | 
22 | CCC[CH2][Sn]([CH2]CCC)([CH2]CCC)[CH2]CCC [Tetrabutyltin] | inactive | -98% | 11.2 | -100±1% | 5.66 ± 1.03 |  |  | inactive |  |  |  |  |  | 
23 | O=C1CCCc2c1cc1ccc3cccc4ccc2c1c34 [9,10-Dihydrobenzo[a]pyren-7(8H)-one] | -79±35% | inactive |  | -90±6% |  | 16.8 ± 7.33 | 9.81 ± 2.08 |  | inactive |  |  |  |  | 
24 | COc1cc([C@@H]2c3cc4c(cc3[C@H](O)[C@H]3COC(=O)[C@@H]23)OCO4)cc(OC)c1OC [Picropodophyllin;AXL-1717/NSC-36407] | inactive | -58% | 0.0548 | -56±10% | 0.14 ± 0.02 |  |  | inactive |  |  |  |  |  | 
